Experimental data: US20110262954A1, “SHUTTLE VECTOR BASED TRANSFORMATION SYSTEM FOR PYROCOCCUS FURIOSUS” (UNIVERSITAT REGENSBURG, priority 2010, published 2011)

Assay: stability of simvastatin at incubation temperature (inferred from growth inhibition)
Details: 95° C. compared with 85° C.

## CCC(C)(C)C(=O)O[C@H]1C[C@@H](C)C=C2C=C[C@H](C)[C@H](CC[C@@H]3C[C@@H](O)CC(=O)O3)[C@H]21 [simvastatin]
  stability of simvastatin: dramatically decreased
